Data from patent US12421210B2, “Fused bicyclic heterocycles as therapeutic agents” (NEW YORK UNIVERSITY, priority 2018, dated 2025).
Where two headings read alike, the source gives them in different places.

Biological target: human NAMPT enzyme (His-hNAMPT) (Homo sapiens (Human), UniProt P43490)
Assay: NAMPT enzymatic inhibition assay (fluorescence, NADH product)
Assay type: biochemical
[1] = [HDB], read-out: NAMPT IC50 (μM) [HDB]
[2] = [BPS], read-out: NAMPT IC50 (μM) [BPS]

Sequence of human NAMPT enzyme (His-hNAMPT) (P43490 whole entry): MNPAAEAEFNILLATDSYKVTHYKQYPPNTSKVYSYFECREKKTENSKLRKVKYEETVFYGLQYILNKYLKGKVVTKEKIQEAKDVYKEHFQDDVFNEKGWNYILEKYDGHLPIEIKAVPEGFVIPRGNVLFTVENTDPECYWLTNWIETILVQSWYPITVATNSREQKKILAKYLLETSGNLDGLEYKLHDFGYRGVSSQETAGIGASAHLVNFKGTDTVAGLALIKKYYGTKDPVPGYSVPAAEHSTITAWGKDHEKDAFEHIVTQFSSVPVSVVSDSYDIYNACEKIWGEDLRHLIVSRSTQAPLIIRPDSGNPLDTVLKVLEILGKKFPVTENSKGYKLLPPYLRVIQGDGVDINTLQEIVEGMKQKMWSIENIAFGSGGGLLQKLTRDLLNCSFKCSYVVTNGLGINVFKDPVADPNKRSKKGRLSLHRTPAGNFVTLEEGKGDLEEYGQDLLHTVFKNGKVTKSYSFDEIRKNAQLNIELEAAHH

| IC50 [1] [µM] | IC50 [2] [µM] | SMILES |
| --- | --- | --- |
| 0.01 to 0.49 |  | O=C(/C=C/c1ccc(O)nc1)NCC[C@@H]1[C@H]2CN(c3nc(Cl)ncc3F)C[C@@H]12 [Example 211, (E)-N-(2-((1R,5S,6s)-3-(2-chloro-5-fluoropyrimidin-4-yl)-3-azabicyclo[3.1.0]hexan-6-yl)ethyl)-3-(6-hydroxypyridin-3-yl)acrylamide] |
|  | < 0.01 | CC(C)(C)OC(=O)N1C[C@@H]2[C@@H](CCNC(=O)c3cc(-c4cccnc4)on3)[C@@H]2C1 [Example 12, (1R,5S,6s)-tert-butyl 6-(2-(5-(pyridin-3-yl)isoxazole-3-carboxamido)ethyl)-3-azabicyclo[3.1.0]hexane-3-carboxylate] |
| < 0.01 |  | Nc1ccc(/C=C/C(=O)NCC[C@@H]2[C@H]3CN(c4cccc(F)c4)C[C@@H]23)cn1 [Example 201, (E)-3-(6-aminopyridin-3-yl)-N-(2-((1R,5S,6s)-3-(3-fluorophenyl)-3-azabicyclo[3.1.0]hexan-6-yl)ethyl)acrylamide] |
|  | 1 to 29 | CC(C)(C)OC(=O)N1C[C@@H]2[C@@H](CNC(=O)c3cc(-c4cccnc4)on3)[C@@H]2C1 [Example 231, (1R,5S,6s)-tert-butyl 6-((5-(pyridin-3-yl)isoxazole-3-carboxamido)methyl)-3-azabicyclo[3.1.0]hexane-3-carboxylate] |
|  | 0.01 to 0.49 | Nc1ccc(/C=C/C(=O)NCC[C@@H]2[C@H]3CN(S(=O)(=O)C4CCOCC4)C[C@@H]23)cn1 [Example 47, (E)-3-(6-aminopyridin-3-yl)-N-(2-((1R,5S,6s)-3-((tetrahydro-2H-pyran-4-yl)sulfonyl)-3-azabicyclo[3.1.0]hexan-6-yl)ethyl)acrylamide] |
|  | 0.01 to 0.49 | Nc1ccc(/C=C/C(=O)NCC[C@@H]2[C@H]3CN(C(=O)c4cccc(F)c4)C[C@@H]23)cn1 [Example 89, (E)-3-(6-aminopyridin-3-yl)-N-(2-((1R,5S,6s)-3-(3-fluorobenzoyl)-3-azabicyclo[3.1.0]hexan-6-yl)ethyl)acrylamide] |
|  | 0.01 to 0.49 | CC(C)(C)OC(=O)N1C[C@H]2CCC(CNC(=O)N3Cc4ccncc4C3)C[C@H]2C1 (stereo in doubt) [Example 270, tert-butyl 5-((2,3-dihydro-1H-pyrrolo[3,4-c]pyridine-2-carboxamido)methyl)hexahydro-1H-isoindole-2(3H)-carboxylate] |
| 0.01 to 0.49 |  | Cc1nc2nccc(N3C[C@@H]4[C@@H](CCNC(=O)/C=C/c5cccnc5)[C@@H]4C3)c2o1 [Example 342, (E)-N-(2-((1R,5S,6s)-3-(2-methyloxazolo[4,5-b]pyridin-7-yl)-3-azabicyclo[3.1.0]hexan-6-yl)ethyl)-3-(pyridin-3-yl)acrylamide] |
|  | 0.5 to 0.99 | CC(C)(C)OC(=O)N1C[C@@H]2[C@@H](CCNC(=O)c3nc4ccncc4s3)[C@@H]2C1 [Example 11, (1R,5S,6s)-tert-butyl 6-(2-(thiazolo[5,4-c]pyridine-2-carboxamido)ethyl)-3-azabicyclo[3.1.0]hexane-3-carboxylate] |
|  | 0.01 to 0.49 | CC(C)(C)OC(=O)N1C[C@@H]2[C@@H](CCNC(=O)c3cc4ccncc4o3)[C@@H]2C1 [Example 5] |
|  | 1 to 29 | CC(C)(C)OC(=O)N1C[C@@H]2[C@@H](CNC(=O)/C=C/c3ccc(N)nc3)[C@@H]2C1 [Example 234, (1R,5S,6s)-tert-butyl 6-(((E)-3-(6-aminopyridin-3-yl)acrylamido)methyl)-3-azabicyclo[3.1.0]hexane-3-carboxylate] |
|  | 0.01 to 0.49 | Nc1ccc(/C=C/C(=O)NCC[C@@H]2[C@H]3CN(C(=O)OC4CCCC4)C[C@@H]23)cn1 [Example 34, (1R,5S,6s)-cyclopentyl 6-(2-((E)-3-(6-aminopyridin-3-yl)acrylamido)ethyl)-3-azabicyclo[3.1.0]hexane-3-carboxylate] |
| 0.01 to 0.49 | 0.01 to 0.49 | Nc1ccc(/C=C/C(=O)NCC[C@@H]2[C@H]3CN(C(=O)c4ccccc4)C[C@@H]23)cn1 [Example 25, (E)-3-(6-aminopyridin-3-yl)-N-(2-((1R,5S,6s)-3-benzoyl-3-azabicyclo[3.1.0]hexan-6-yl)ethyl)acrylamide] |

Further lines, the molecule ahead of its results:

| SMILES | IC50 [1] [µM] | IC50 [2] [µM] |
| --- | --- | --- |
| O=C(/C=C/c1cccnc1)NCC[C@@H]1[C@H]2CN(c3cccc(C(F)(F)F)c3)C(=O)[C@@H]12 (racemic) [Example 262, (E)-N-(2-((1R,5S,6S)-2-oxo-3-(3-(trifluoromethyl)phenyl)-3-azabicyclo[3.1.0]hexan-6-yl)ethyl)-3-(pyridin-3-yl)acrylamide and (E)-N-(2-((1S,5R,6R)-2-oxo-3-(3-(trifluoromethyl)phenyl)-3-azabicyclo[3.1.0]hexan-6-yl)ethyl)-3-(pyridin-3-yl)acrylamide] | 0.01 to 0.49 |  |
| O=C(/C=C/c1cccnc1)NCC[C@@H]1[C@H]2CN(c3ccnc(OC4CCOCC4)c3)C[C@@H]12 [Example 310, (E)-3-(Pyridin-3-yl)-N-(2-((1R,5S,6s)-3-(2-((tetrahydro-2H-pyran-4-yl)oxy)pyridin-4-yl)-3-azabicyclo[3.1.0]hexan-6-yl)ethyl)acrylamide] | 0.01 to 0.49 |  |
| O=C(/C=C/c1cccnc1)NCC[C@@H]1[C@H]2CN(c3nc(OC4CCOCC4)ncc3F)C[C@@H]12 [Example 305, (E)-N-(2-((1R,5S,6s)-3-(5-fluoro-2-((tetrahydro-2H-pyran-4-yl)oxy)pyrimidin-4-yl)-3-azabicyclo[3.1.0]hexan-6-yl)ethyl)-3-(pyridin-3-yl)acrylamide] | < 0.01 |  |
| O=C(/C=C/c1cccnc1)NCC[C@@H]1[C@H]2CN(c3ncncn3)C[C@@H]12 [Example 170, (E)-N-(2-((1R,5S,6s)-3-(1,3,5-triazin-2-yl)-3-azabicyclo[3.1.0]hexan-6-yl)ethyl)-3-(pyridin-3-yl)acrylamide] | 0.01 to 0.49 |  |
| O=C(NCC[C@@H]1[C@H]2CN(C(=O)Nc3ccccc3)C[C@@H]12)c1cc2ccncc2o1 [Example 57, N-(2-((1R,5S,6s)-3-(phenylcarbamoyl)-3-azabicyclo[3.1.0]hexan-6-yl)ethyl)furo[2,3-c]pyridine-2-carboxamide] |  | 0.01 to 0.49 |
| O=C(NCC[C@H]1[C@@H]2CN(c3ccccc3)C(=O)[C@H]12)c1cc(-c2cccnc2)on1 (stereo in doubt) [Example 261, N-(2-((1R,5S,6S)-2-oxo-3-phenyl-3-azabicyclo[3.1.0]hexan-6-yl)ethyl)-5-(pyridin-3-yl)isoxazole-3-carboxamide/N-(2-((1S,5R,6R)-2-oxo-3-phenyl-3-azabicyclo[3.1.0]hexan-6-yl)ethyl)-5-(pyridin-3-yl)isoxazole-3-carboxamide] | 0.01 to 0.49 |  |
| O=C(/C=C/c1cccnc1)NCC[C@@H]1[C@H]2CN(Cc3ccc(C(F)(F)F)cc3)C[C@@H]12 [Example 244, (E)-3-(pyridin-3-yl)-N-(2-((1R,5S,6s)-3-(4-(trifluoromethyl)benzyl)-3-azabicyclo[3.1.0]hexan-6-yl)ethyl)acrylamide] | 0.01 to 0.49 |  |
| O=C(/C=C/c1cccnc1)NCC[C@@H]1[C@H]2CN(c3cc(Cl)ccc3F)C[C@@H]12 [Example 150, (E)-N-(2-((1R,5S,6s)-3-(5-chloro-2-flurophenyl)-3-azabicyclo[3.1.0]hexan-6-yl)ethyl)-3-(pyridin-3-yl)acrylamide] | 0.01 to 0.49 |  |
| O=C(NCC[C@H]1[C@@H]2CN(c3ccc(F)cc3)C(=O)[C@H]12)c1cc(-c2cccnc2)on1 (stereo in doubt) [Example 265, N-(2-((1R,5,6S)-3-(4-fluorophenyl)-2-oxo-3-azabicyclo[3.1.0]hexan-6-yl)ethyl)-5-(pyridin-3-yl)isoxazole-3-carboxamide and N-(2-((1S,5R,6R)-3-(4-fluorophenyl)-2-oxo-3-azabicyclo[3.1.0]hexan-6-yl)ethyl)-5-(pyridin-3-yl)isoxazole-3-carboxamide] | 0.01 to 0.49 |  |
| Cc1nc(C)c(C(=O)N2C[C@@H]3[C@@H](CCNC(=O)c4cnc5nccn5c4)[C@@H]3C2)o1 [Example 108, N-(2-((1R,5S,6s)-3-(2,4-dimethyloxazole-5-carbonyl)-3-azabicyclo[3.1.0]hexan-6-yl)ethyl)imidazo[1,2-a]pyrimidine-6-carboxamide] |  | 0.01 to 0.49 |
| O=C(/C=C/c1cccnc1)NCC[C@@H]1[C@H]2CN(c3ccnc(C(F)(F)F)c3)C[C@@H]12 [Example 159, (E)-3-(pyridin-3-yl)-N-(2-((1R,5S,6s)-3-(2-(trifluoromethyl)pyridin-4-yl)-3-azabicyclo[3.1.0]hexan-6-yl)ethyl)acrylamide] | < 0.01 |  |
| O=C(NCC[C@@H]1[C@H]2CN(C(=O)c3ccc(F)cc3)C[C@@H]12)c1cnc2nccn2c1 [Example 107, N-(2-((1R,5S,6s)-3-(4-fluorobenzoyl)-3-azabicyclo[3.1.0]hexan-6-yl)ethyl)imidazo[1,2-a]pyrimidine-6-carboxamide] |  | 0.01 to 0.49 |
| N#Cc1ccc(N2C[C@@H]3[C@@H](CCNC(=O)/C=C/c4cccnc4)[C@@H]3C2)cc1 [Example 137, (E)-N-(2-((1R,5S,6s)-3-(4-cyanophenyl)-3-azabicyclo[3.1.0]hexan-6-yl)ethyl)-3-(pyridin-3-yl)acrylamide] | 0.01 to 0.49 |  |
| O=C(/C=C/c1cccnc1)NCC[C@@H]1[C@H]2CN(c3nc(-c4ncco4)ncc3F)C[C@@H]12 [Example 336, (E)-N-(2-((1R,5S,6s)-3-(5-fluoro-2-(oxazol-2-yl)pyrimidin-4-yl)-3-azabicyclo[3.1.0]hexan-6-yl)ethyl)-3-(pyridin-3-yl)acrylamide] | < 0.01 |  |
| O=C(NCC[C@@H]1[C@H]2CN(c3ccccc3)C[C@@H]12)c1cc(-c2cccnc2)on1 [Example 134, N-(2-((1R,5S,6s)-3-phenyl-3-azabicyclo[3.1.0]hexan-6-yl)ethyl)-5-(pyridin-3-yl)isoxazole-3-carboxamide] | < 0.01 |  |
| CC(C)N1C[C@@H]2[C@@H](CCNC(=O)/C=C/c3cccnc3)[C@@H]2C1 [Example 245, (E)-N-(2-((1R,5S,6s)-3-isopropyl-3-azabicyclo[3.1.0]hexan-6-yl)ethyl)-3-(pyridin-3-yl)acrylamide] | 1 to 29 |  |
| O=C(NCC[C@@H]1[C@H]2CN(c3ncccn3)C[C@@H]12)c1cnc2nccn2c1 [Example 199, N-(2-((1R,5S,6s)-3-(pyrimidin-2-yl)-3-azabicyclo[3.1.0]hexan-6-yl)ethyl)imidazo[1,2-a]pyrimidine-6-carboxamide] | 0.01 to 0.49 |  |
